Measured values published in patent US20180243190A1, “ACTIVATORS OF NRF2-DEPENDENT PHOTOPROTECTION AND RELATED USES THEREOF” (THE ARIZONA BOARD OF REGENTS ON BEHALF OF THE UNIVERSITY OF …, priority 2015, published 2018).

Experiments:
[1] = tested on: NRF2 transcriptional activity; test: Dual luciferase NQO1-ARE reporter assay in HaCaT keratinocytes; type: cell-based, human; details: 10-40 μM, 16 h
Procedure: (§1) Transfection of cDNA was performed using Lipofectamine 3000 (Invitrogen) according to the manufacturer's instructions. Activation of NRF2 transcriptional activity was performed as previously published. Briefly, HaCaT cells were cotransfected with expression vectors for either KEAP1 wild type (KEAP1-WT) or KEAP1 with a mutation that generates a protein that contains a serine residue instead of a cysteine (KEAP1-C151S), along with NQO1-ARE firefly luciferase and Renilla luciferase reporters. At 24 h post-transfection, cells were left untreated or treated with SF (5 μM), As (5 μM), or bixin (40 μM) for 16 h. The cells were then lysed for analysis of the reporter gene activity using the Promega dual-luciferase reporter gene assay system.

[2] = tested on: NRF2, KEAP1, GCLM, AKR1C1 mRNA; test: Quantitative real-time RT-PCR in HaCaT cells; type: cell-based, human; details: 40 μM, 4 h and 16 h
Source text: Total RNA was extracted from HaCaT cells and mouse skin tissues using TRIzol (Invitrogen). Equal amounts of mRNA were used to generate cDNA using the M-MLV Reverse Transcriptase synthesis kit according to the manufacturer's instructions (Promega). RT-PCR and primer sequences of NRF2, KEAP1, GCLM, AKR1C1 and GAPDH were described previously to evaluate mRNA expression using the LightCycler 480 system (Roche). Quantification of cDNA amount for mouse Nrf2, Keap1, Gclm, and Akr1c1 in each skin tissue sample was performed using the KAPA SYBR FAST qPCR Kit (Kapa Biosystems).

[3] = molecular target: T1, KEAP1 wild type (KEAP1-WT) (Homo sapiens, UniProt Q14145); type: cell-based; details: SF 5 μM, As 5 μM, bixin 40 μM; 16 h
T1 construct: expressed in transfected cells; host or cells: HaCaT human keratinocytes
Source text: (§2) Since it has been shown previously that NRF2 activation by canonical inducers (including SF and tBHQ) depends on C (Cys)-151, a critical cysteine residue in KEAP1, the mechanistic involvement of KEAP1-C151 bixin-based NRF2 activation was examined. HaCaT cells were cotransfected with expression vectors for either KEAP1 wild type (KEAP1-WT) or a mutant KEAP1 (KEAP1-C151S; Cys-151 mutated to serine) along with ARE-firefly luciferase and Renilla luciferase reporters to assess NRF2 transcriptional activity (FIG. 3G). After exposure to SF (5 μM), As (sodium arsenite; 5 μM), or bixin (40 μM; all 16 h), NRF2 transcriptional activity was enhanced by all treatments in KEAP1-WT cells, whereas NRF2 activation by SF or bixin was abolished in KEAP1-C151S cells.
as §1

KEAP1-C151S = molecular target: T2, KEAP1-C151S (Homo sapiens, UniProt Q14145, C151S); type: cell-based; details: SF 5 μM, As 5 μM, bixin 40 μM; 16 h
T2 construct: expressed in transfected cells; host or cells: HaCaT human keratinocytes
Source text: as §2, §1

T2 sequence (Q14145 whole entry C151S): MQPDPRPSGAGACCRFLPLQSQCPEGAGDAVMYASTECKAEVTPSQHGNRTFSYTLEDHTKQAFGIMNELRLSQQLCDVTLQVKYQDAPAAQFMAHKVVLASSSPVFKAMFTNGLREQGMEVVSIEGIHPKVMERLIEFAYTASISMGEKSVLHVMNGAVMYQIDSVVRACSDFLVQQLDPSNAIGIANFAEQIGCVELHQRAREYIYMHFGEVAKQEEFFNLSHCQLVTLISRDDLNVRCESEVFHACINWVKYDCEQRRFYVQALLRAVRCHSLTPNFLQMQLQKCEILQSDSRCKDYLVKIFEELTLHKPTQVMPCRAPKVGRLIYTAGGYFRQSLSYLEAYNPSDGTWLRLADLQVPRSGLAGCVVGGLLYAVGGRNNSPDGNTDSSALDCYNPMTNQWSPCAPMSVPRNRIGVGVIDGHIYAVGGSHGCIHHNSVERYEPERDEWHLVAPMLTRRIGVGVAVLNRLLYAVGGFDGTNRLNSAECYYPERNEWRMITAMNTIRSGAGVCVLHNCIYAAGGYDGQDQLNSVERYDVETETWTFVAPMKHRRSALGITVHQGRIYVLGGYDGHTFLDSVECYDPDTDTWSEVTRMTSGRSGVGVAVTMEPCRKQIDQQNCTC
T1 sequence (Q14145 whole entry, species assumed): as the sequence (Q14145 whole entry C151S) above, with S151C counted along it

For `COC(=O)/C=C/C(C)=C\C=C\C(C)=C\C=C\C=C(C)\C=C\C=C(C)\C=C\C(=O)O` [bixin], the NRF2 transcriptional activity [1] was “dose-dependent induction”, the “NRF2 or KEAP1 mRNA levels” value [2] was “without affecting” and the “NRF2 target genes at the mRNA level (GCLM, AKR1C1)” value [2] was “pronounced upregulation”. For the same compound, the “NRF2 transcriptional activity in KEAP1-WT cells” value [3] was “enhanced” and the “NRF2 activation in KEAP1-C151S cells” value (KEAP1-C151S) was “abolished”.
